The NIST ThermoML archive (doi:10.1021/je700300y)

What was measured:
[1] = refractive index (Na D-line) (dimensionless); settings: 298.15 K; 101.33 kPa; Liquid; Standard Abbe refractometry
[2] = xn = mol fraction of the nth substance listed; settings: 101 kPa, Liquid
[3] = 101.33 kPa, Liquid

O [water]
Settings | refractive index
[1] | 1.3326

CO [methanol] + CCO
mass density [kg/m3], [2]
Settings | x1 = 0.0729 | x1 = 0.1632 | x1 = 0.3251 | x1 = 0.5592 | x1 = 0.6349 | x1 = 0.7182 | x1 = 0.8027 | x1 = 0.8714 | x1 = 0.9485
283.15 K | 798.11 | 798.27 | 798.58 | 799.14 | 799.35 | 799.6 | 799.88 | 800.12 | 800.43
288.15 K | 793.83 | 793.97 | 794.22 | 794.68 | 794.85 | 795.07 | 795.3 | 795.51 | 795.78
293.15 K | 789.54 | 789.64 | 789.84 | 790.2 | 790.34 | 790.52 | 790.71 | 790.89 | 791.1
298.15 K | 785.23 | 785.3 | 785.44 | 785.7 | 785.81 | 785.95 | 786.11 | 786.25 | 786.43
303.15 K | 780.89 | 780.94 | 781.02 | 781.19 | 781.26 | 781.36 | 781.49 | 781.59 | 781.73
308.15 K | 776.52 | 776.54 | 776.57 | 776.65 | 776.69 | 776.76 | 776.84 | 776.9 | 777.01
313.15 K | 772.12 | 772.11 | 772.09 | 772.08 | 772.09 | 772.12 | 772.16 | 772.19 | 772.26

CCO [ethanol]
[3]
Settings | mass density [kg/m3]
283.15 K | 797.99
288.15 K | 793.73
293.15 K | 789.47
298.15 K | 785.18
303.15 K | 780.87
308.15 K | 776.52
313.15 K | 772.14

Settings | refractive index
[1] | 1.3595

CO [methanol]
[3]
Settings | mass density [kg/m3]
283.15 K | 800.67
288.15 K | 795.98
293.15 K | 791.28
298.15 K | 786.57
303.15 K | 781.85
308.15 K | 777.1
313.15 K | 772.32

Settings | refractive index
[1] | 1.327
